Laboratory results reported in patent US10004701B2, “Methods and compositions for treating infection” (UNIVERSITY OF ROCHESTER, priority 2012, dated 2018).
Where a name gives a salt, the structure may show the parent alone. Read-outs that look alike come from different tables or passages of the source.

How the values were obtained:
Experiment in all cases: AK assay 384-well format, Prestwick library screening
E. faecium = type: cell-based, Enterococcus faecium; settings: Enterococcus faecium, 3 h, 50 μM final drug concentration
[1] = test system: S. aureus strain USA300-0114; type: cell-based, Staphylococcus aureus; settings: Staphylococcus aureus, USA300, 3 h, 50 μM final drug concentration
K. pneumoniae = type: cell-based, Klebsiella pneumoniae; settings: Klebsiella pneumoniae, 3 h, 50 μM final drug concentration
[2] = test system: A. baumannii strain 98-37-09; type: cell-based, Acinetobacter baumannii; settings: Acinetobacter baumannii, 983709, 3 h, 50 μM final drug concentration
P. aeruginosa = type: cell-based, Pseudomonas aeruginosa; settings: Pseudomonas aeruginosa, 3 h, 50 μM final drug concentration
E. cloacae = type: cell-based, Enterobacter cloacae; settings: Enterobacter cloacae, 3 h, 50 μM final drug concentration
E. coli = type: cell-based, Escherichia coli; settings: Escherichia coli, 3 h, 50 μM final drug concentration
[3] = planktonic, cutoff for positive 3-fold increase, read-out: AK-based Prestwick Library Screening Results, E. faecium (fold increase in extracellular AK activity)
[4] = planktonic, cutoff for positive 3-fold increase, read-out: AK-based Prestwick Library Screening Results, S. aureus (fold increase in extracellular AK activity)
[5] = planktonic, cutoff for positive 3-fold increase, read-out: AK-based Prestwick Library Screening Results, K. pneumoniae (fold increase in extracellular AK activity)
[6] = planktonic, cutoff for positive 3-fold increase, read-out: AK-based Prestwick Library Screening Results, A. baumannii (fold increase in extracellular AK activity)
[7] = planktonic, cutoff for positive 3-fold increase, read-out: AK-based Prestwick Library Screening Results, P. aeruginosa (fold increase in extracellular AK activity)
[8] = planktonic, cutoff for positive 3-fold increase, read-out: AK-based Prestwick Library Screening Results, E. cloacae (fold increase in extracellular AK activity)
[9] = planktonic, cutoff for positive 3-fold increase, read-out: AK-based Prestwick Library Screening Results, E. coli (fold increase in extracellular AK activity)
[10] = planktonic E. faecium, cutoff for positive-scoring molecules 3-fold increase, read-out: AK-based Prestwick Library Screening Results, E. faecium (increase in extracellular AK activity)
[11] = planktonic S. aureus, cutoff for positive-scoring molecules 3-fold increase, read-out: AK-based Prestwick Library Screening Results, S. aureus (increase in extracellular AK activity)
[12] = planktonic K. pneumoniae, cutoff for positive-scoring molecules 3-fold increase, read-out: AK-based Prestwick Library Screening Results, K. pneumoniae (increase in extracellular AK activity)
[13] = planktonic A. baumannii, cutoff for positive-scoring molecules 3-fold increase, read-out: AK-based Prestwick Library Screening Results, A. baumannii (increase in extracellular AK activity)
[14] = planktonic P. aeruginosa, cutoff for positive-scoring molecules 3-fold increase, read-out: AK-based Prestwick Library Screening Results, P. aeruginosa (increase in extracellular AK activity)
[15] = planktonic E. cloacae, cutoff for positive-scoring molecules 3-fold increase, read-out: AK-based Prestwick Library Screening Results, E. cloacae (increase in extracellular AK activity)
[16] = planktonic E. coli, cutoff for positive-scoring molecules 3-fold increase, read-out: AK-based Prestwick Library Screening Results, E. coli (increase in extracellular AK activity)

Cc1onc(-c2c(Cl)cccc2Cl)c1C(=O)N[C@@H]1C(=O)N2[C@@H]1SC(C)(C)[C@@H]2C(=O)O [Dicloxacillin sodium salt]
fold induction at 50 µM (E. faecium; [3]): 1
fold induction at 50 µM [1, 4]: 7.1
fold induction at 50 µM (K. pneumoniae; [5]): 0.9
fold induction at 50 µM [2, 6]: 1.5
fold induction at 50 µM (P. aeruginosa; [7]): 1.4
fold induction at 50 µM (E. cloacae; [8]): 1.2
fold induction at 50 µM (E. coli; [9]): 1.2

CN1CCN(CCCN2c3ccccc3Sc3ccc(Cl)cc32)CC1 [Prochlorperazine dimaleate]
fold induction at 50 µM (E. faecium; [3]): 1.1
fold induction at 50 µM [1, 4]: 1.1
fold induction at 50 µM (K. pneumoniae; [5]): 1.2
fold induction at 50 µM [2, 6]: 1.6
fold induction at 50 µM (P. aeruginosa; [7]): 1.2
fold induction at 50 µM (E. cloacae; [8]): 2
fold induction at 50 µM (E. coli; [9]): 1.2

N[C@@H](Cc1ccc(O)c(O)c1)C(=O)O [Levodopa]
fold induction at 50 µM (E. faecium; 384-well format, cutoff for positive-scoring molecules 3-fold increase, read-out: AK-based Prestwick Library Screening Results, E. faecium (increase in extracellular AK activity)): 0.8
fold induction at 50 µM ([1]; 384-well format, cutoff for positive-scoring molecules 3-fold increase, read-out: AK-based Prestwick Library Screening Results, S. aureus (increase in extracellular AK activity)): 0.5
fold induction at 50 µM (K. pneumoniae; 384-well format, cutoff for positive-scoring molecules 3-fold increase, read-out: AK-based Prestwick Library Screening Results, K. pneumoniae (increase in extracellular AK activity)): 0.6
fold induction at 50 µM ([2]; 384-well format, cutoff for positive-scoring molecules 3-fold increase, read-out: AK-based Prestwick Library Screening Results, A. baumannii (increase in extracellular AK activity)): 0.7
fold induction at 50 µM (P. aeruginosa; 384-well format, cutoff for positive-scoring molecules 3-fold increase, read-out: AK-based Prestwick Library Screening Results, P. aeruginosa (increase in extracellular AK activity)): 0.5
fold induction at 50 µM (E. cloacae; 384-well format, cutoff for positive-scoring molecules 3-fold increase, read-out: AK-based Prestwick Library Screening Results, E. cloacae (increase in extracellular AK activity)): 0.8
fold induction at 50 µM (E. coli; 384-well format, cutoff for positive-scoring molecules 3-fold increase, read-out: AK-based Prestwick Library Screening Results, E. coli (increase in extracellular AK activity)): 0.6

Nc1nc(O)c2ncn(COC(CO)CO)c2n1 [Ganciclovir]
fold induction at 50 µM (E. faecium; planktonic, cutoff for positive-scoring molecules 3-fold increase, read-out: AK-based Prestwick Library Screening Results, E. faecium (fold increase in extracellular AK activity)): 0.9
fold induction at 50 µM ([1]; planktonic, cutoff for positive-scoring molecules 3-fold increase, read-out: AK-based Prestwick Library Screening Results, S. aureus (fold increase in extracellular AK activity)): 0.9
fold induction at 50 µM (K. pneumoniae; planktonic, cutoff for positive-scoring molecules 3-fold increase, read-out: AK-based Prestwick Library Screening Results, K. pneumoniae (fold increase in extracellular AK activity)): 0.7
fold induction at 50 µM ([2]; planktonic, cutoff for positive-scoring molecules 3-fold increase, read-out: AK-based Prestwick Library Screening Results, A. baumannii (fold increase in extracellular AK activity)): 0.8
fold induction at 50 µM (P. aeruginosa; planktonic, cutoff for positive-scoring molecules 3-fold increase, read-out: AK-based Prestwick Library Screening Results, P. aeruginosa (fold increase in extracellular AK activity)): 0.9
fold induction at 50 µM (E. cloacae; planktonic, cutoff for positive-scoring molecules 3-fold increase, read-out: AK-based Prestwick Library Screening Results, E. cloacae (fold increase in extracellular AK activity)): 1.4
fold induction at 50 µM (E. coli; planktonic, cutoff for positive-scoring molecules 3-fold increase, read-out: AK-based Prestwick Library Screening Results, E. coli (fold increase in extracellular AK activity)): 0.9

CC(Oc1ccccc1)C(=O)N[C@@H]1C(=O)N2[C@@H]1SC(C)(C)[C@@H]2C(=O)O (stereo partly drawn) [Phenethicillin potassium salt]
fold induction at 50 µM (E. faecium; [3]): 1
fold induction at 50 µM [1, 4]: 0.6
fold induction at 50 µM (K. pneumoniae; [5]): 0.5
fold induction at 50 µM [2, 6]: 0.8
fold induction at 50 µM (P. aeruginosa; [7]): 0.4
fold induction at 50 µM (E. cloacae; [8]): 0.3
fold induction at 50 µM (E. coli; [9]): 0.5

CCC1(C)CC(=O)NC(=O)C1 [Bemegride]
fold induction at 50 µM (E. faecium; planktonic, […], read-out: AK-based Prestwick Library Screening Results, E. faecium (fold increase in extracellular AK activity)): 0.9
fold induction at 50 µM ([1]; planktonic, […], read-out: AK-based Prestwick Library Screening Results, S. aureus (fold increase in extracellular AK activity)): 0.7
fold induction at 50 µM (K. pneumoniae; planktonic, […], read-out: AK-based Prestwick Library Screening Results, K. pneumoniae (fold increase in extracellular AK activity)): 0.6
fold induction at 50 µM ([2]; planktonic, […], read-out: AK-based Prestwick Library Screening Results, A. baumannii (fold increase in extracellular AK activity)): 0.7
fold induction at 50 µM (P. aeruginosa; planktonic, […], read-out: AK-based Prestwick Library Screening Results, P. aeruginosa (fold increase in extracellular AK activity)): 0.6
fold induction at 50 µM (E. cloacae; planktonic, […], read-out: AK-based Prestwick Library Screening Results, E. cloacae (fold increase in extracellular AK activity)): 0.6
fold induction at 50 µM (E. coli; planktonic, […], read-out: AK-based Prestwick Library Screening Results, E. coli (fold increase in extracellular AK activity)): 0.6

CCCc1cc(=O)[nH]c(=S)[nH]1 [Propylthiouracil]
fold induction at 50 µM (E. faecium; [10]): 1
fold induction at 50 µM [1, 11]: 0.7
fold induction at 50 µM (K. pneumoniae; [12]): 0.6
fold induction at 50 µM [2, 13]: 0.8
fold induction at 50 µM (P. aeruginosa; [14]): 0.7
fold induction at 50 µM (E. cloacae; [15]): 1.1
fold induction at 50 µM (E. coli; [16]): 0.7

CC(=O)Nc1ccc(OCC(O)CNC(C)C)cc1 (stereo not drawn) [Practolol]
fold induction at 50 µM (E. faecium; [10]): 0.9
fold induction at 50 µM [1, 11]: 0.6
fold induction at 50 µM (K. pneumoniae; [12]): 0.5
fold induction at 50 µM [2, 13]: 0.7
fold induction at 50 µM (P. aeruginosa; [14]): 0.6
fold induction at 50 µM (E. cloacae; [15]): 0.8
fold induction at 50 µM (E. coli; [16]): 0.7

CC(C[N+](C)(C)C)OC(N)=O (stereo not drawn) [Bethanechol chloride]
fold induction at 50 µM (E. faecium; planktonic E. faecium, positive cutoff 3-fold increase, read-out: AK-based Prestwick library screening result, E. faecium (fold increase in extracellular AK activity)): 0.9
fold induction at 50 µM ([1]; planktonic S. aureus, positive cutoff 3-fold increase, read-out: AK-based Prestwick library screening result, S. aureus (fold increase in extracellular AK activity)): 0.7
fold induction at 50 µM (K. pneumoniae; planktonic K. pneumoniae, positive cutoff 3-fold increase, read-out: AK-based Prestwick library screening result, K. pneumoniae (fold increase in extracellular AK activity)): 0.7
fold induction at 50 µM ([2]; planktonic A. baumannii, positive cutoff 3-fold increase, read-out: AK-based Prestwick library screening result, A. baumannii (fold increase in extracellular AK activity)): 0.8
fold induction at 50 µM (P. aeruginosa; planktonic P. aeruginosa, positive cutoff 3-fold increase, read-out: AK-based Prestwick library screening result, P. aeruginosa (fold increase in extracellular AK activity)): 0.7
fold induction at 50 µM (E. cloacae; planktonic E. cloacae, positive cutoff 3-fold increase, read-out: AK-based Prestwick library screening result, E. cloacae (fold increase in extracellular AK activity)): 0.9
fold induction at 50 µM (E. coli; planktonic E. coli, positive cutoff 3-fold increase, read-out: AK-based Prestwick library screening result, E. coli (fold increase in extracellular AK activity)): 1
